{"source": "patent US11312676B2", "about": "“Small molecule stimulators of steroid receptor coactivator proteins and their use in the treatment of cancer” (BAYLOR COLLEGE OF MEDICINE, priority 2014, dated 2022)", "key": {"SRC-3-CBP-CARM1 complex": {"target": "T1, SRC-3-CBP-CARM1 complex (Homo sapiens, UniProt Q9Y6Q9)", "T1 construct": "expressed in transfected cells; host or cells: HeLa", "experiment": "Coimmunoprecipitation of FLAG-SRC-3 with CBP and CARM1 in HeLa cells", "type": "cell-based", "details": "HeLa cells overexpressing FLAG-SRC-3, one hour, dose-dependent", "protocol": "(§1) For Western blotting, cells were harvested and lysed in lysis buffer (50 mM Tris, pH 8.0, 150 mM NaCl, 10% glycerol, 0.5% NP40, protease and phosphatase inhibitor) and then centrifuged for 15 min at 14000 rpm at 4° C. After total cellular protein concentration was determined by Bradford analysis (Bio-Rad, Hercules, Calif.), protein lysates were loaded onto and resolved by sodium dodecyl sulfate-polyacrylamide gel electrophoresis (SDS-PAGE) and transferred to PVDF membranes (BioRad) which were blocked and incubated with indicated antibodies. For immunoprecipitation, 10 μg of plasmid encoding FLAG-SRC-3 was transfected into HeLa cells with 90% confluence in one 10 cm plate with lipofectamine 2000 (Invitrogen). Twenty-four hours after transfection, the cells were treated with MCB-613 for one hour and lysed with lysis buffer (25 mM Tris-Cl pH7.5, 150 mM NaCl, 5% glycerol, 1 mM EDTA, 1% Triton X-100, protease and phosphatase inhibitor) at 4° C. After a 30-second sonication, the lysate was cleared by centrifugation at 14000 rpm at 4° C. for 15 minutes and was incubated with anti-Flag-M2 agarose affinity gel (Sigma) for four hours. The agarose gel was washed four times with washing buffer (25 mM Tris pH 8.0, 150 mM NaCl, 1 mM EDTA, 1% Triton X-100) and resuspended with SDS loading buffer for Western blotting. […]"}, "[1]": {"target": "T2, CBP interacting domain (CID) of SRC-3 (Homo sapiens, UniProt Q9Y6Q9)", "T2 construct": "made in house", "T2 sequence (Q9Y6Q9 1023-1093 limits assumed)": "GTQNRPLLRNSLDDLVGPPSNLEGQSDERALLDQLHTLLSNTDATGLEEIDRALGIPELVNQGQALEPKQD", "experiment": "Fluorescence spectroscopy, intrinsic fluorescence quenching of GST SRC-3 CID", "type": "binding", "details": "1.5 μM GST SRC-3 CID", "protocol": "(§2) Fluorescence spectrometric measurements were performed on a SLM 48000S fluorescence spectrophotometer (SLM-Aminco, Rochester, N.Y.) and an Agilent Cary Eclipse Fluorescence spectrophotometer (Agilent Technologies, Inc., Santa Clara, Calif.) using the GST fusion proteins of different portions of SRC-3 expressed and purified. A total of 1.5 μM of GST SRC-3 RID, CID or bHLH was placed in a fluorescence cuvette and excited by UV light at a wavelength of 278 nm with a 2 nm bandwidth and the emission spectra were recorded from 290 nm to above 500 nm with a bandwidth of 4 nm. The aliquot size of test compound was maintained below 5% of the total sample volume in order to minimize the effects of dilution."}, "SRC-2": {"target": "T3, SRC-2 (Homo sapiens, UniProt Q15596)", "T3 construct": "expressed in transfected cells; host or cells: HeLa", "T3 sequence (Q15596 whole entry, the tested form may be a part)": "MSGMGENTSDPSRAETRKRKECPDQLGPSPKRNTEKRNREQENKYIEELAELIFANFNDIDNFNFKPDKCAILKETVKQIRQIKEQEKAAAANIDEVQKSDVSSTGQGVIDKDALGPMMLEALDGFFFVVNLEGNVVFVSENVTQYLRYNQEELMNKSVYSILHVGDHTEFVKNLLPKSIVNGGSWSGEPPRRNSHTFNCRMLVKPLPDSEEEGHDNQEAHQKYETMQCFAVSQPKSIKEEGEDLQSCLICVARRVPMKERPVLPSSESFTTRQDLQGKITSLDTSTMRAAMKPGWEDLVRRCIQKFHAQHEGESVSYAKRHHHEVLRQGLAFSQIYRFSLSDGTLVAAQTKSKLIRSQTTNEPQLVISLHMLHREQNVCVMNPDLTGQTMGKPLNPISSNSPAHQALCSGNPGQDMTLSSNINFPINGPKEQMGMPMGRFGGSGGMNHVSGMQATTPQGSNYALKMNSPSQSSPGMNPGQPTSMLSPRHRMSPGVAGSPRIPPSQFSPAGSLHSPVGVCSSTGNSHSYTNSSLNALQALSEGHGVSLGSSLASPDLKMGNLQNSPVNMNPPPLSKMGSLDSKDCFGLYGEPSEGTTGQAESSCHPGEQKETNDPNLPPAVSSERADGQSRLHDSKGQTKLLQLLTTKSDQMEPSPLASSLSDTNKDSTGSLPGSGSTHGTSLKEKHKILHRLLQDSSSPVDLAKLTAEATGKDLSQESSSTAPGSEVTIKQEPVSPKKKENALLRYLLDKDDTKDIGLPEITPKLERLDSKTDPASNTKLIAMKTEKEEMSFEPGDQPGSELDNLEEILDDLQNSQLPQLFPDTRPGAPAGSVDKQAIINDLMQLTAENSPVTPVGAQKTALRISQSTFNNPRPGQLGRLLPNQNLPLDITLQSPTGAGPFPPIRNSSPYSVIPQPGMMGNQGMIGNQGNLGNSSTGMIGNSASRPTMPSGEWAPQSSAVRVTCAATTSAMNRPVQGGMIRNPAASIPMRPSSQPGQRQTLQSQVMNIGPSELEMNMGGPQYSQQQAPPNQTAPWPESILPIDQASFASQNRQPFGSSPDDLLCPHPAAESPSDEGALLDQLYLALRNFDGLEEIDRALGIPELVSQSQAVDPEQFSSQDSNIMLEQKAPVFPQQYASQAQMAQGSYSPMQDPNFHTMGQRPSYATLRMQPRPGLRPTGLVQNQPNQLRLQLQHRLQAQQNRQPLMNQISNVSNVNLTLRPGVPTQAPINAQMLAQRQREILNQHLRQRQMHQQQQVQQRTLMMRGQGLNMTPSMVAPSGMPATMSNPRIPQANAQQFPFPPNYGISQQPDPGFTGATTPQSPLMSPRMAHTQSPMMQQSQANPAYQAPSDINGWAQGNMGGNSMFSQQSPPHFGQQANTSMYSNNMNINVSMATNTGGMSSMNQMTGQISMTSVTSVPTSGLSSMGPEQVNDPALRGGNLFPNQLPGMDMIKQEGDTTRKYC", "experiment": "Gal4 luciferase reporter assay (pBIND-SRC-2 + pG5-LUC) in HeLa cells", "type": "cell-based", "details": "24-hour treatment, 5-8 μM, maximum over SRC-1/-2/-3", "protocol": "(§3) The constructs expressing the Gal4 responsive luciferase reporter (pG5-luc), Gal4 DBD fusion with SRC-1, […] (pBIND-SRC-1/-2/-3), MMP2 or MMP13 promoter driven luciferase reporter (MMP2-luc, MMP13-luc) were prepared. Twenty-four hours before transfection, HeLa cells were plated in 24-well dishes. The indicated expression plasmids were transfected into cells using Lipofectamine 2000 according to the manufacturer's instructions.\n(§4) After various compound treatments, cells were lysed in luciferase lysis buffer and assayed for luciferase activity using the ONE-Glo luciferase assay system (Promega, Madison, Wis.). All luciferase activities were normalized to protein concentration determined by Bradford assay (Bio-Rad, Hercules, Calif.)."}, "MMP13 expression": {"tested_on": "MMP13 expression", "experiment": "qRT-PCR of endogenous MMP13 in MDA-MB-231 cells", "type": "cell-based", "details": "24 hours"}, "HeLa cells": {"tested_on": "HeLa cells", "experiment": "Western blot of stress, UPR, autophagy and apoptosis markers in HeLa cells", "type": "cell-based", "protocol": "(§5) For Western blotting, cells were harvested and lysed in lysis buffer (50 mM Tris, pH 8.0, 150 mM NaCl, 10% glycerol, 0.5% NP40, protease and phosphatase inhibitor) and then centrifuged for 15 min at 14000 rpm at 4° C. After total cellular protein concentration was determined by Bradford analysis (Bio-Rad, Hercules, Calif.), protein lysates were loaded onto and resolved by sodium dodecyl sulfate-polyacrylamide gel electrophoresis (SDS-PAGE) and transferred to PVDF membranes (BioRad) which were blocked and incubated with indicated antibodies. For immunoprecipitation, 10 μg of plasmid encoding FLAG-SRC-3 was transfected into HeLa cells with 90% confluence in one 10 cm plate with lipofectamine 2000 (Invitrogen). Twenty-four hours after transfection, the cells were treated with MCB-613 for one hour and lysed with lysis buffer (25 mM Tris-Cl pH7.5, 150 mM NaCl, 5% glycerol, 1 mM EDTA, 1% Triton X-100, protease and phosphatase inhibitor) at 4° C. After a 30-second sonication, the lysate was cleared by centrifugation at 14000 rpm at 4° C. for 15 minutes and was incubated with anti-Flag-M2 agarose affinity gel (Sigma) for four hours. The agarose gel was washed four times with washing buffer (25 mM Tris pH 8.0, 150 mM NaCl, 1 mM EDTA, 1% Triton X-100) and resuspended with SDS loading buffer for Western blotting."}, "[2]": {"tested_on": "mouse primary hepatocytes", "experiment": "MTS cell viability assay, mouse primary hepatocytes", "type": "cell-based", "details": "48 hours", "protocol": "Cell lines were maintained in DMEM (HeLa, MCF-7, HepG2), RPMI 1640 (H1299), or DMEM/F12 (PC-3) supplemented with 10% fetal calf serum, penicillin and streptomycin (100 U/ml). Primary mouse hepatocytes were isolated and cultured. Mouse embryonic fibroblasts (MEF) were cultured in DMEM. All cells were maintained at 37° C. under 5% CO2.\nCells were seeded in 96-well plates and allowed to reach 70% to 80% confluence. After indicated compound treatments, relative numbers of viable cells were measured by MTS assay using the Cell Titer 96 Aqueous One Solution Cell Proliferation Assay (Promega)."}, "SRC-3": {"target": "T4, SRC-3 (Homo sapiens, UniProt Q9Y6Q9)", "T4 construct": "expressed in transfected cells; host or cells: HeLa", "T4 sequence (Q9Y6Q9 whole entry, the tested form may be a part)": "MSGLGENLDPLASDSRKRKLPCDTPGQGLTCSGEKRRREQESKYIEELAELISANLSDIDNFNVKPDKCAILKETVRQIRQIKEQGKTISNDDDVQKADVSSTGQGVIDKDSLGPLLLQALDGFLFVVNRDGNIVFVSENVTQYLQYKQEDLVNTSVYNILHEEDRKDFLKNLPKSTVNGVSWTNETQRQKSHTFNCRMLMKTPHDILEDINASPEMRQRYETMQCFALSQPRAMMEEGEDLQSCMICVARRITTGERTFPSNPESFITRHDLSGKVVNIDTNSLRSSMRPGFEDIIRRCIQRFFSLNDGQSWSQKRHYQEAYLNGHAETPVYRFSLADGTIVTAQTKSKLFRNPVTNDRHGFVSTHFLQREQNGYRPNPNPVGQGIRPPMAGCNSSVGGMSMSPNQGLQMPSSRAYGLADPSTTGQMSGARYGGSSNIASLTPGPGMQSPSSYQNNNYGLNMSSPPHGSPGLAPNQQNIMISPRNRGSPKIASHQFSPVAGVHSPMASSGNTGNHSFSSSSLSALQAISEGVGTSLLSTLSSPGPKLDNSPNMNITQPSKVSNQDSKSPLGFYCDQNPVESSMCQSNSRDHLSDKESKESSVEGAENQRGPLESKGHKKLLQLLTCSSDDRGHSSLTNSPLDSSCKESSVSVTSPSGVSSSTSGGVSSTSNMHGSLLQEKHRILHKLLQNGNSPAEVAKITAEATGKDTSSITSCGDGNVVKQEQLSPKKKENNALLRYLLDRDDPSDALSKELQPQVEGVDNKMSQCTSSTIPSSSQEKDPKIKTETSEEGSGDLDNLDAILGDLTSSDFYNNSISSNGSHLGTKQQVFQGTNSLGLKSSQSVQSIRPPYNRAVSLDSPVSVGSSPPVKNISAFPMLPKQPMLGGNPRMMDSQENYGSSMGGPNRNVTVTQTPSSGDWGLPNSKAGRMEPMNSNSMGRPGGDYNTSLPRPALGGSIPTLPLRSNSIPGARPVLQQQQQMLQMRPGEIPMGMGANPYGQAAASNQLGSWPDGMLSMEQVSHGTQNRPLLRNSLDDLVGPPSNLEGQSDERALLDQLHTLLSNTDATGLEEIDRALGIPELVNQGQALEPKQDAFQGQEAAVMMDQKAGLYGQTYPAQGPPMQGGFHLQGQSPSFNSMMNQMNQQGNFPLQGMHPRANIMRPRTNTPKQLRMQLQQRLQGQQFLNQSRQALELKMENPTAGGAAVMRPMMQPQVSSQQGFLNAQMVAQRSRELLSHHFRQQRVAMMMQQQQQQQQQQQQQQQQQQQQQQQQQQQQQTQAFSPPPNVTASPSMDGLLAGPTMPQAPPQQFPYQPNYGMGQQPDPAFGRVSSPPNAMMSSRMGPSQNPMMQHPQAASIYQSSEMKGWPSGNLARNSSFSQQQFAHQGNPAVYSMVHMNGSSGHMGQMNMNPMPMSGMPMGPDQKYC", "experiment": "Gal4 luciferase reporter assay (pBIND-SRC-3 + pG5-LUC) in HeLa cells", "type": "cell-based", "protocol": "as §3, §4\nHeLa cells were transfected with a Gal4 responsive luciferase reporter (pG5-luc) and a construct encoding SRC-1, SRC-2 or SRC-3 fused with the DNA binding domain of Gal4 (pBIND-SRC-1, pBIND-SRC-2 or pBIND-SRC-3) were treated with the indicated compounds."}, "[3]": {"tested_on": "SRC-1, SRC-2 and SRC-3 protein levels", "experiment": "Immunoblot of SRC protein levels in HeLa cells", "type": "cell-based", "details": "24 hours", "protocol": "as §5"}, "[4]": {"target": "T5, receptor interacting domain (RID) of SRC-3 (Homo sapiens, UniProt Q9Y6Q9)", "T5 construct": "A total of 1.5 μM of GST SRC-3 RID, CID or bHLH was placed in a fluorescence cuvette; made in house", "T5 sequence (Q9Y6Q9 582-840 limits assumed)": "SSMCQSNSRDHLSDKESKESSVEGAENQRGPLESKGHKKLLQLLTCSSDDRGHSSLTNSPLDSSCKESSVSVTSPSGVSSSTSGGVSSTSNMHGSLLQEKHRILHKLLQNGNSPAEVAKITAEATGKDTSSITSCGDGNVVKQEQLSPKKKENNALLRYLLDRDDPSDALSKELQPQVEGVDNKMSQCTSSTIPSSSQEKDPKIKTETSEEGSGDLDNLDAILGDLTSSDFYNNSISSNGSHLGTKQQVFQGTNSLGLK", "experiment": "Fluorescence spectroscopy, intrinsic fluorescence quenching of GST SRC-3 RID", "type": "binding", "details": "1.5 μM GST SRC-3 RID, excitation 278 nm; read-out: half-affecting concentration of intrinsic fluorescence quenching, SRC-3 RID", "protocol": "as §2"}, "Abl kinase": {"tested_on": "Abl kinase", "experiment": "CrkL (Y207) phosphorylation as marker for Abl activation in HeLa cells", "type": "cell-based", "details": "1 hour and 4 hours", "protocol": "as §1"}}}
{"compound": "CCC1CC(=Cc2cccnc2)C(=O)C(=Cc2cccnc2)C1", "note": "(stereo not drawn) [MCB-613, 4-Ethyl-2,6-bis-pyridin-3-ylmethylene-cyclohexanone]", "values": [{"measurement": "SRC-3's interaction with CBP and CARM1", "setting": "SRC-3-CBP-CARM1 complex", "result": "increased"}, {"measurement": "concentration required to detect fluorescence quenching of the CID", "setting": "[1]", "result": "at least 20 μM"}, {"measurement": "induction in the activity of pBIND-SRC-2", "setting": "SRC-2", "result": "≤ 160", "unit": "fold"}, {"measurement": "endogenous MMP13 expression", "setting": "MMP13 expression", "result": "activated"}, {"measurement": "proteasome function and ER stress (polyubiquitinated proteins, UPR markers)", "setting": "HeLa cells; 4-5 hours", "result": "leads to proteasome dysfunction and ER stress"}, {"measurement": "autophagy and apoptosis markers", "setting": "HeLa cells; 24 hours", "result": "led to the induction of LC3BII and caspase-3 cleavage"}, {"measurement": "cytotoxicity to normal cells", "setting": "[2]", "result": "resistant"}, {"measurement": "induction in the activity of pBIND-SRC-3", "setting": "SRC-3; 24-hour treatment, 5-8 μM, maximum over SRC-1/-2/-3", "result": "≤ 160", "unit": "fold"}, {"measurement": "SRC activity after 4 hours of treatment", "setting": "SRC-3; 4 hours, 6-10 μM", "result": "significant increase"}, {"measurement": "SRC-1, SRC-2 and SRC-3 protein levels", "setting": "[3]", "result": "decreases"}, {"measurement": "EC50", "setting": "[4]", "result": 10, "unit": "µM"}, {"measurement": "activation of Abl (CrkL Y207 phosphorylation)", "setting": "Abl kinase", "result": "activation of Abl could be observed as early as one hour"}]}
